Experimental data as given in patent US6034101A, “Dosage form and method for administering drug” (ALZA Corporation, priority 1997, dated 2000).

Tests used:
[1] = test system: children with attention deficient hyperactivity disorder; assay: Clinical study of Example 2: behavior and combined attention, acquired tolerance in children with attention deficient hyperactivity disorder; assay type: in vivo, human; conditions: total 36 mg
Procedure: (§1) The CLAM Test is a behavior rating that indicates social conformity or rebellion as developed by Conners, Lonez, and Milch and SKAMP is a rating that also measures behavior as developed by Swanson and reported in Psychopharmacological Bulletin, Vol. 21, pp. 887-890 (1985).
(§2) The effect measurements in this study were: (1) observer ratings on SKAMP scale (during classroom time) and (2) performance on the computerized mathematics test. Each child was tested on the mathematics test before the study began, and based on this pre-test during the study, a mathematics test appropriate for each child's ability was given. The morning and evening parent CLAM assessments were used to identify unusual behaviors. The evening parent CLAM was used to determine the presence of treatment effects in the evening hours, particularly treatment effects on the time the child fell asleep, and whether the child's sleep was interrupted. All of the children also wore an activity monitor (Actigraph) which records the movements of the child throughout the day. The activity (number of movements per minute) is recorded electronically and modeled as a function of the drug effect.
The results of a clinical study that comprises administering methylphenidate according to two distinct delivery programs are reported in this example. […]

[2] = test system: school children; assay: Clinical study of Example 1: behavior, activity, mathematics scores and acute tolerance in school children (SKAMP, CLAM); assay type: in vivo, human
Procedure: as §1, §2
The immediate release tablet and the sustained-release dosage form were compared to a sustained-release dosage form that administered methylphenidate in an ascending profile. The sustained-release ascending profile corresponds to administering 4.2 mg at zero hour, 1.1 mg at 1.5 hours, 1.1 mg at 2 hours, 1.2 mg at 2.5 hours, 1.2 mg at 3.0 hours, 1.3 mg at 3.5 hours, 1.3 mg at 4 hours, 1.5 mg at 4.5 hours, 1.5 mg at 5 hours, 1.8 mg at 5.5 hours, 1.8 mg at 6 hours, and 2.0 mg at 6.5 hours, to produce the sustained-ascending release dotted line profile seen in FIG. 2.
The accompanying figures present the results of the above-described study. In FIGS. 3, 4, and 5, the line with a clear circle denotes a placebo, the dark circle an immediate release dosage form administered twice a day, the dark squares a sustained release nonascending dosage profile, and the clear squares the sustained ascending release profile provided by this invention. The SKAMP Score and CLAM Score were defined earlier in the specification, and the times are as indicated on the figures. FIG. 3 denotes the observed behavior, FIG. 4 denotes the inattention overactivity, and FIG. 5 denotes the combined attention results of the study.

[3] = test system: patients; conditions: cited from earlier work
[4] = test system: patients; assay: Therapeutic response and acquired tolerance in patients (general statements); assay type: in vivo, human; conditions: sustained-release dosage form with constant plasma concentration; applicant's finding
[5] = immediate release form; cited from earlier work
[6] = sustained-nonascending dose, 20 mg, vs placebo

COC(=O)C(c1ccccc1)C1CCCCN1 (stereo not shown) [methylphenidate]
behavior, acquired tolerance ([1]; sustained-ascending program, FIG. 7): absence of acquired tolerance
combined attention, acquired tolerance ([1]; sustained-ascending release, FIG. 8): essentially free of developed tolerance
therapeutic effect / tolerance ([2]; controlled-sustained ascending profile): desired therapeutic effect without tolerance
acute tolerance ([2]; sustained-nonascending dose, 20 mg): development of acute tolerance
activity [2, 6]: decrease in activity
inappropriate behavior [2, 6]: lessening of inappropriate behavior
mathematical scores [2, 6]: higher mathematical scores
tolerance ([3]; 5 mg dose twice a day): acquires tolerance
time to development of tolerance ([3]; after administration): within hours
acute tolerance ([3]; prior art sustained-release nonascending dosage form): often develops an acute tolerance
efficacy against acquired tolerance [4]: lacks efficacy particularly against acquired tolerance
half-life [5]: short half-life
onset [5]: rapid onset
